From PubChem BioAssay AID743317 (Broad Institute, 2014)
Records with an inconclusive call do not appear. The source made the active and inactive calls.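 How the source made its calls: active means fitted curve reaches 40% activation at or below the top valid dose, and every replicate test is called active; inconclusive means replicate tests disagree, some active and some inactive; inactive means all replicate tests inactive, including activity in the wrong direction.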

Biological target: Endoplasmic reticulum aminopeptidase 1 (Homo sapiens) (UniProt Q9NZ08)
Sequence (Q9NZ08 whole entry, looked up): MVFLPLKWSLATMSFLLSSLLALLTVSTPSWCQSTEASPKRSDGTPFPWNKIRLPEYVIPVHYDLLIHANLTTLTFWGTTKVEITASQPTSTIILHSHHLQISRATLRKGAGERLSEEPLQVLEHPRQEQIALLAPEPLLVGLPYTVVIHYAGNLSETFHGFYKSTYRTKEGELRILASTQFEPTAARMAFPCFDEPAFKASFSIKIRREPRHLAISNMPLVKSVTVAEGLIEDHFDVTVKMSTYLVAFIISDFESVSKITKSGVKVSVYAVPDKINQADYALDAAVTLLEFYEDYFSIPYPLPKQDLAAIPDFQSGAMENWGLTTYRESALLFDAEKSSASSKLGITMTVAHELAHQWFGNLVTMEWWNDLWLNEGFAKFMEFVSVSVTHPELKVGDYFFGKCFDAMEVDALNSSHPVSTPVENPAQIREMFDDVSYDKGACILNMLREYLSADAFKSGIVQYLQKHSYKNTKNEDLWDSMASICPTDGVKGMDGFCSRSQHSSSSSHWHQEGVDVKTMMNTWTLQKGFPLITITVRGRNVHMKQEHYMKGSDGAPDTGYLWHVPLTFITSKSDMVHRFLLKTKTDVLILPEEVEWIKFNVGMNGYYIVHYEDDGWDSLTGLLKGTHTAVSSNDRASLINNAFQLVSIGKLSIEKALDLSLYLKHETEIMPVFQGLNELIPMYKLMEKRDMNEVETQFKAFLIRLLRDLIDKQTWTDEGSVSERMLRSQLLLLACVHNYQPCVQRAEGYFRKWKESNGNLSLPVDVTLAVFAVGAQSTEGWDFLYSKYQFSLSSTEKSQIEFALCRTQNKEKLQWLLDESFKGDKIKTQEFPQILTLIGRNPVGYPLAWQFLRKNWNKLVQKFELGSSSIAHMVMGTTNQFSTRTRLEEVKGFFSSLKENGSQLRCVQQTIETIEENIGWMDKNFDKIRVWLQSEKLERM
Assay: ERAP1 aminopeptidase activity change, dose response, biochemical, fluorescence, cherry-pick (AID 743317)
Conditions: ERAP1 enzyme, Leu-AMC fluorescence, 60 min

SMILES | AC40 | activity increase (activation) (at 11 µM (top of the series)) | also measured
COc1ccc(C(=O)O)cc1S(=O)(=O)Nc1cc(C(F)(F)F)ccc1N1CCCCC1 | 0.246 µM |  | 
O=C(O)c1ccccc1NS(=O)(=O)c1cccc(-n2sc3ccccc3c2=O)c1 |  | -98.6% (inactive) | 
COc1ccc(-c2cc3ccc(O)cc3oc2=O)cc1OC |  | -92.7% (inactive) | 
O=C(C[C@H]1CC[C@H]2[C@@H](COC[C@@H](O)CN2C(=O)Nc2cccc(Cl)c2)O1)N1CCCCC1 | 0.211 µM |  | 
O=c1ccc2cc(OC3O[C@H](CO)[C@@H](O)[C@H](O)[C@H]3O)c(O)cc2o1 (stereo not given in full) |  |  | activity increase (activation) (at 5.6 µM (top of the series)): -95.4% (inactive)
C[C@@H]1CCCCO[C@@H](CN(C)C(=O)CCC(F)(F)F)[C@@H](C)CN([C@@H](C)CO)C(=O)c2cc(NS(=O)(=O)c3ccc(Cl)cc3)ccc2O1 | 0.191 µM |  | 
CN1CCCC1CCNc1ccc2c(=O)c3ccccc3oc2c1 (stereo not given) |  | -115% (inactive) | 
COc1ccc(CN(C)C[C@H]2OCCCC[C@@H](C)Oc3ccc(NS(=O)(=O)c4cccs4)cc3C(=O)N([C@H](C)CO)C[C@H]2C)cc1 | 1.23 µM |  | 
CCCN(C)C[C@@H]1OCCCC[C@@H](C)Oc2ccc(NS(=O)(=O)c3ccccc3)cc2C(=O)N([C@H](C)CO)C[C@@H]1C | 1.04 µM |  | 
Cc1ccccc1-c1ccc2c(c1)O[C@@H](CN(C)Cc1ccc(C(=O)O)cc1)[C@@H](C)CN([C@H](C)CO)S2(=O)=O | 4.29 µM |  | 
CNC[C@H]1OCCCC[C@@H](C)Oc2ccc(NS(=O)(=O)c3ccc(C)cc3)cc2C(=O)N([C@@H](C)CO)C[C@H]1C | 3.42 µM |  | 
COCCCn1c(C(=O)N2CCOCC2)cc2c(=O)n3ccccc3nc21 |  | -46.9% (inactive) | 
C/C(=N\NC(=O)CC#N)c1cc2ccc(O)cc2oc1=O |  | -67.1% (inactive) | 
CCc1cc(=O)oc2c(CNCc3c(F)cccc3Cl)c(O)ccc12 |  | -60.7% (inactive) | 
COc1ccc(CN(C)C[C@@H]2OCCCC[C@H](C)Oc3ccc(NS(=O)(=O)c4cccs4)cc3C(=O)N([C@@H](C)CO)C[C@@H]2C)cc1 | 1.19 µM |  | 
C[C@H](CO)N1C[C@H](C)[C@H](CN(C)CC2CCCCC2)Oc2c(NC(=O)Nc3ccc(C(F)(F)F)cc3)cccc2C1=O | 0.565 µM |  | 
CCOC(=O)C[n+]1ccc2c([nH]c3ccccc32)c1C |  | -38.3% (inactive) | 
Cc1cc(N(C)Cc2ccccc2)nc2cc(O)ccc12 |  | -54% (inactive) | 
CO[C@@H]1CN(C)C(=O)c2ccc(NC(=O)Nc3cccc(Cl)c3)cc2OC[C@@H](C)NC[C@H]1C | 1.41 µM |  | 
C[C@@H]1CCCCO[C@@H](CN(C)Cc2ccccc2)[C@H](C)CN([C@H](C)CO)C(=O)c2cc(NS(=O)(=O)c3cccs3)ccc2O1 | 0.528 µM |  | 
C[C@@H]1CCCCO[C@@H](CN(C)Cc2ccccc2)[C@@H](C)CN([C@H](C)CO)C(=O)c2cc(NS(=O)(=O)c3cccs3)ccc2O1 | 0.158 µM |  | 
Cc1c(CC(=O)N2CCN(C(=O)C3COc4ccccc4O3)CC2)c(=O)oc2cc(O)c(Cl)cc12 (stereo not given) |  | -33.4% (inactive) | 
CC1CCCC(C)N1CCCNC(=O)c1cc2c(s1)-c1ccccc1OC2 (stereo not given) |  | -45.6% (inactive) | 
CCc1c(C)c2cc(Cl)c(O)c(CN(CC)CC)c2oc1=O |  | -62.3% (inactive) | 
CCN(CC)c1ccc2c(C)c(Cl)c(=O)oc2c1 | 8.19 µM |  | 
CC1CN(Cc2cc(=O)oc3cc(O)c(Cl)cc23)CC(C)O1 (stereo not given) | 3.4 µM |  | 
C[C@H](CO)N1C[C@H](C)[C@H](CN(C)Cc2ccc(C(=O)O)cc2)Oc2c(NC(=O)Nc3ccccc3)cccc2C1=O | 2.46 µM |  | 
COc1cc2cc(C(=O)N3CCN(Cc4ccc5c(c4)OCO5)CC3)c(=O)oc2cc1OC | 4.58 µM |  | 

SMILES | AC40 | activity increase (activation) (at 11 µM (top of the series)) | also measured
CCCNC(=O)C[C@@H]1CC[C@@H]2[C@H](COC[C@H](O)CN2C(=O)Nc2cccc(Cl)c2)O1 | 6.77 µM |  | 
Cc1c(C)c2ccc(O)c(CN3CCN(C)CC3)c2oc1=O |  | -52.8% (inactive) | 
O=C(CSc1cn[nH]n1)Nc1cccc(C(=O)O)c1 |  | -63.3% (inactive) | 
C[C@@H]1CCCCO[C@H](CN(C)Cc2ccccc2)[C@H](C)CN([C@H](C)CO)C(=O)c2cc(NS(=O)(=O)c3ccccc3)ccc2O1 | 0.358 µM |  | 
CCn1cc(CN2CCCC(C(=O)Nc3ccc(-c4nc5ccccc5[nH]4)cc3)C2)c(C)n1 (stereo not given) | 3.5 µM |  | 
COc1ccc(NC(=O)Nc2ccc3c(c2)C(=O)N([C@H](C)CO)C[C@@H](C)[C@@H](CN(C)Cc2ccc(C(=O)O)cc2)OCCCC[C@@H](C)O3)cc1 | 0.652 µM |  | 
C[C@H]1CN([C@@H](C)CO)C(=O)c2cccc(NC(=O)Nc3ccc4c(c3)OCO4)c2O[C@@H]1CN(C)CC1CC1 | 0.77 µM |  | 
CCCN(C)C[C@@H]1OCCCC[C@@H](C)Oc2ccc(NS(=O)(=O)c3ccc(OC)cc3)cc2C(=O)N([C@H](C)CO)C[C@@H]1C | 0.812 µM |  | 
N#Cc1c(N2CCNCC2)nc(-c2ccco2)c2c1CCCC2 |  | -51.7% (inactive) | 
CCCN(C)C[C@@H]1OCCCC[C@H](C)Oc2ccc(NC(=O)Nc3ccc(F)cc3)cc2C(=O)N([C@H](C)CO)C[C@@H]1C | 4.37 µM |  | 
Cc1noc(C)c1NC(=O)Nc1ccc2c(c1)C(=O)N([C@H](C)CO)C[C@@H](C)[C@@H](CN(C)Cc1ccc(C(F)(F)F)cc1)OCCCC[C@@H](C)O2 | 2.77 µM |  | 
COc1ccc(-c2cc3ccc(O)cc3oc2=O)cc1 |  | -75.7% (inactive) | 
Cc1ccccc1-c1ccc2c(c1)O[C@@H](CN(C)Cc1ccc(C(=O)O)cc1)[C@@H](C)CN([C@@H](C)CO)S2(=O)=O | 1.24 µM |  | 
CCCN(C)C[C@@H]1OCCCC[C@@H](C)Oc2ccc(NS(=O)(=O)c3ccc(C)cc3)cc2C(=O)N([C@@H](C)CO)C[C@@H]1C | 0.133 µM |  | 
C[C@@H]1CCCCO[C@H](CN(C)C)[C@H](C)CN([C@H](C)CO)C(=O)c2cc(NS(=O)(=O)c3ccc(Cl)cc3)ccc2O1 | 0.548 µM |  | 
C[C@@H]1CCCCO[C@@H](CN(C)CC2CC2)[C@@H](C)CN([C@H](C)CO)C(=O)c2cc(NS(=O)(=O)c3cccs3)ccc2O1 | < 0.08 µM |  | 
CCN(CCCl)c1cc(CN(C)C)cc(NC(=O)c2ccc(C(=O)Nc3cc(CN(C)C)cc(N(CC)CCCl)c3)cc2)c1 |  | -76% (inactive) | 
Cc1c(-c2ccccc2)c(=O)oc2cc(O)ccc12 |  | -87.3% (inactive) | 
COc1ccc(C2=NN(c3ccc(C(=O)O)cc3)C(c3ccc(OC)c(OC)c3)C2)cc1 (stereo not given) | 0.442 µM |  | 
C[C@H](CO)N1C[C@H](C)[C@@H](CN(C)CC2CC2)Oc2c(NC(=O)Nc3ccc(C(F)(F)F)cc3)cccc2C1=O | 0.757 µM |  | 
CN1c2ccc(-c3ccc(C#N)cc3)cc2[C@@H]2[C@@H](CCN2C(=O)CC2CC2)[C@@H]1CO |  | -8.63% (inactive) | 
C[C@H](CO)N1C[C@H](C)[C@H](CN(C)Cc2ccncc2)Oc2c(NC(=O)Nc3ccc(C(F)(F)F)cc3)cccc2C1=O | 0.704 µM |  | 
C[C@@H]1CCCCO[C@H](CN(C)Cc2ccccc2)[C@H](C)CN([C@@H](C)CO)C(=O)c2cc(NS(=O)(=O)c3cccs3)ccc2O1 | 0.607 µM |  | 
O=C(O)c1cccc(NC(=O)c2ccccc2NC(=O)c2cccc([N+](=O)[O-])c2)c1 | 0.967 µM |  | 
O=C(C[C@H]1CC[C@@H]2[C@H](COC[C@@H](O)CN2C(=O)Nc2cccc(Cl)c2)O1)N1CCCCC1 | 0.812 µM |  | 
CN1[C@@H]2c3ccc(/C=C/c4ccccc4)c(=O)n3C[C@@H]2[C@@H](CO)[C@@H]1C(=O)NC1CCCC1 |  | -14.6% (inactive) | 
O=c1oc2c(CN3CCN(CCO)CC3)c(O)ccc2cc1-c1ccccn1 |  | -80.1% (inactive) | 
